Measurements reported in patent US9840513B2 (AbbVie S.à.r.l., priority 2015, dated 2017).
pEC50: −log10 of the molar value.

Biological target: T1, F508delCFTR cell surface expression in CFBE41o-F508delCFTR-HRP cells (Homo sapiens, UniProt P13569, DEL508-508)
T1 construct: fused on or other part: Horseradish peroxidase (HRP) reporter inserted in the fourth exofacial (extracellular) loop of CFTR; expression is doxycycline-inducible
Assay: Cell Surface Expression-Horse Radish Peroxidase (CSE-HRP) Assay
Format: cell-based
Details: for pEC50: CFBE41o-F508delCFTR-HRP cells, 18-24 hours at 33° C., 8-point curve, highest concentration 20 μM; for Maximum % activity (%): maximum at any tested concentration, normalized to on-plate positive control (3 μM)
Summary of the method: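 Correctors incubated 18-24 h at 33 °C on doxycycline-induced (0.5 μg/mL, 72 h) CFBE41o-F508delCFTR-HRP cells, 3-fold series from 20 μM. After DPBS washes, luminol luminescence read; activity expressed relative to DMSO and a 3 μM positive control, EC50 fitted from triplicate plates.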

T1 sequence (P13569 with tags, fused parts or gaps DEL508-508 limits assumed): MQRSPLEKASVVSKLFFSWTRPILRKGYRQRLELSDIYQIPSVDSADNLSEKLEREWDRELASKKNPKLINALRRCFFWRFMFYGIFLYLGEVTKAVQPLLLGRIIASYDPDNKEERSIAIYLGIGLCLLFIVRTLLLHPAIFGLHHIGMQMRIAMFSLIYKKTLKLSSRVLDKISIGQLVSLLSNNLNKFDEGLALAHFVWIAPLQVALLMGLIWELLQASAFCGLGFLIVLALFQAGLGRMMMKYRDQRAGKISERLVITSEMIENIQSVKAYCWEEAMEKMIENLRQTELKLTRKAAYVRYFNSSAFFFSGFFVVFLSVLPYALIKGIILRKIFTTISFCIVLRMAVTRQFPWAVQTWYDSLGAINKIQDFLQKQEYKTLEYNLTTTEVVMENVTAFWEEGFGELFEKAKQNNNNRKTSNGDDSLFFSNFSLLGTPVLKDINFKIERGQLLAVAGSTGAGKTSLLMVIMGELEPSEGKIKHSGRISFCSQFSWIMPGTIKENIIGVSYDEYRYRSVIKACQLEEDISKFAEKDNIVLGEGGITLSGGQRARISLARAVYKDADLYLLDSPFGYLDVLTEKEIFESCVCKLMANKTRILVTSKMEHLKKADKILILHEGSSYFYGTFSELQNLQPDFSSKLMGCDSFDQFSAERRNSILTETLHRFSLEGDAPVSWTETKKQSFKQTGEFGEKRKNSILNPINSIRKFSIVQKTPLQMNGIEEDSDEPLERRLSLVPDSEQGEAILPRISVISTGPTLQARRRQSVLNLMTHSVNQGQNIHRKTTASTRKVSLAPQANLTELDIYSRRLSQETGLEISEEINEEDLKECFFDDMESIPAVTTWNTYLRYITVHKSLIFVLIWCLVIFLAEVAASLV
T1 sequence (P13569 919-1480 limits assumed, stated change not applied): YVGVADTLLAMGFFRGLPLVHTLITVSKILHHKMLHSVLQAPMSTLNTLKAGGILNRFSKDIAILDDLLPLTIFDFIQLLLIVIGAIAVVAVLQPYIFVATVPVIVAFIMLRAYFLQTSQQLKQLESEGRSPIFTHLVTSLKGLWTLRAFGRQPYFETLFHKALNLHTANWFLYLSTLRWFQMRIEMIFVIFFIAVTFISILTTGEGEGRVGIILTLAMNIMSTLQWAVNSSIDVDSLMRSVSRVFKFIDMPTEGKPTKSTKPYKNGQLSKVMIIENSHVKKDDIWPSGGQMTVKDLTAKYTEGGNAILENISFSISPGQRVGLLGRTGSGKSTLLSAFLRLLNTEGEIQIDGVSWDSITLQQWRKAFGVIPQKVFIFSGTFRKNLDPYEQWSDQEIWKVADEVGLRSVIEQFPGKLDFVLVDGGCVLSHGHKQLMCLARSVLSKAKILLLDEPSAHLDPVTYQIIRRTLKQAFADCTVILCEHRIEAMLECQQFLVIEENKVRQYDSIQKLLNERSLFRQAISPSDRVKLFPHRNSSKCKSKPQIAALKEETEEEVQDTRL

pEC50 | Maximum % activity (%) | Compound
6.09 | 102 | CCOC(=O)[C@H]1CC[C@H]([C@@H]2C[C@H](NC(=O)[C@@]3(C)COc4cc5c(cc43)OC(F)(F)O5)c3ccc(OC)cc3O2)CC1 [Example 152, ethyl trans-4-[(2S,4S)-4-{[(7R)-2,2-difluoro-7-methyl-6,7-dihydro-2H-furo[2,3-f][1,3]benzodioxole-7-carbonyl]amino}-7-methoxy-3,4-dihydro-2H-1-benzopyran-2-yl]cyclohexane-1-carboxylate]
6.01 | 85 | CC1(C)OC[C@@H](Cn2nc(-c3ccccc3)cc(NC(=O)[C@@]3(C)COc4cc5c(cc43)OC(F)(F)O5)c2=O)O1 [Example 26, (7R)—N-(2-{[(4R)-2,2-dimethyl-1,3-dioxolan-4-yl]methyl}-3-oxo-6-phenyl-2,3-dihydropyridazin-4-yl)-2,2-difluoro-7-methyl-6,7-dihydro-2H-furo[2,3-f][1,3]benzodioxole-7-carboxamide]
6.15 | 117 | COc1ccc2c(c1)O[C@@H](COCc1ccccc1)C[C@H]2NC(=O)[C@@]1(C)COc2cc3c(cc21)OC(F)(F)O3 [Example 276, (7R)—N-{(2R,4R)-2-[(benzyloxy)methyl]-7-methoxy-3,4-dihydro-2H-1-benzopyran-4-yl}-2,2-difluoro-7-methyl-6,7-dihydro-2H-furo[2,3-f][1,3]benzodioxole-7-carboxamide]
6.18 | 110 | COc1ccc2c(c1)O[C@@H](CO)C[C@H]2NC(=O)[C@@]1(C)COc2cc3c(cc21)OC(F)(F)O3 [Example 277, (7R)-2,2-difluoro-N-[(2R,4R)-2-(hydroxymethyl)-7-methoxy-3,4-dihydro-2H-1-benzopyran-4-yl]-7-methyl-6,7-dihydro-2H-furo[2,3-f][1,3]benzodioxole-7-carboxamide]
7.40 | 112 | COc1ccc2c(c1)O[C@@H](c1ccc(C(=O)N(C)CCO)cn1)C[C@H]2NC(=O)[C@@]1(C)COc2cc3c(cc21)OC(F)(F)O3 [Example 234, 6-[(2R,4R)-4-{[(7R)-2,2-difluoro-7-methyl-6,7-dihydro-2H-furo[2,3-f][1,3]benzodioxole-7-carbonyl]amino}-7-methoxy-3,4-dihydro-2H-1-benzopyran-2-yl]-N-(2-hydroxyethyl)-N-methylpyridine-3-carboxamide]
5.91 | 123 | C[C@]1(C(=O)Nc2cccc(N3CCCC3)n2)COc2cc3c(cc21)OC(F)(F)O3 [Example 118, (7R)-2,2-difluoro-7-methyl-N-[6-(pyrrolidin-1-yl)pyridin-2-yl]-6,7-dihydro-2H-furo[2,3-f][1,3]benzodioxole-7-carboxamide]
7.52 | 114 | COc1ccc2c(c1)O[C@@H](c1ccc(C(=O)NCCO)cn1)C[C@H]2NC(=O)[C@@]1(C)COc2cc3c(cc21)OC(F)(F)O3 [Example 244, 6-[(2R,4R)-4-{[(7R)-2,2-difluoro-7-methyl-6,7-dihydro-2H-furo[2,3-f][1,3]benzodioxole-7-carbonyl]amino}-7-methoxy-3,4-dihydro-2H-1-benzopyran-2-yl]-N-(2-hydroxyethyl)pyridine-3-carboxamide]
6.02 | 77 | COC(=O)c1cccc([C@H]2C[C@@H](NC(=O)C3(C)CCc4cc5c(cc43)OC(F)(F)O5)c3ccc(OC)cc3O2)c1 (stereo partly drawn) [Example 52, methyl 3-{(2R,4R)-4-[(2,2-difluoro-5-methyl-6,7-dihydro-2H,5H-indeno[5,6-d][1,3]dioxole-5-carbonyl)amino]-7-methoxy-3,4-dihydro-2H-1-benzopyran-2-yl}benzoate]
7.05 | 108 | COc1ccc2c(c1)O[C@@H](c1ccc(C(=O)NCCCC(N)=O)cn1)C[C@H]2NC(=O)[C@@]1(C)COc2cc3c(cc21)OC(F)(F)O3 [Example 228, N-(4-amino-4-oxobutyl)-6-[(2R,4R)-4-{[(7R)-2,2-difluoro-7-methyl-6,7-dihydro-2H-furo[2,3-f][1,3]benzodioxole-7-carbonyl]amino}-7-methoxy-3,4-dihydro-2H-1-benzopyran-2-yl]pyridine-3-carboxamide]
5.93 | 136 | C[C@]1(C(=O)Nc2cccc(N3CCCCC3)n2)COc2cc3c(cc21)OC(F)(F)O3 [Example 119, (7R)-2,2-difluoro-7-methyl-N-[6-(piperidin-1-yl)pyridin-2-yl]-6,7-dihydro-2H-furo[2,3-f][1,3]benzodioxole-7-carboxamide]
< 4.70 | 8 | CC1(C(=O)Nc2ccc(N3CC(C(=O)O)C3)cc2)COc2cc3c(cc21)OC(F)(F)O3 (centres unmarked) [Example 61, 1-{4-[(2,2-difluoro-7-methyl-6,7-dihydro-2H-furo[2,3-f][1,3]benzodioxole-7-carbonyl)amino]phenyl}azetidine-3-carboxylic acid]
5.78 | 75 | COc1ccc2c(c1)O[C@@H](c1ccc(C(=O)O)cc1)C[C@H]2NC(=O)[C@@]1(C)CCc2cc3c(cc21)OC(F)(F)O3 (single isomer, unassigned) [Example 50]
5.90 | 107 | C[C@@]1(C(=O)N[C@@H]2C[C@H]([C@H]3CC[C@H](C(=O)O)CC3)Oc3cc(OC(F)(F)F)ccc32)CCc2cc3c(cc21)OC(F)(F)O3 [Example 169, trans-4-[(2R,4R)-4-{[(5R)-2,2-difluoro-5-methyl-6,7-dihydro-2H,5H-indeno[5,6-d][1,3]dioxole-5-carbonyl]amino}-7-(trifluoromethoxy)-3,4-dihydro-2H-1-benzopyran-2-yl]cyclohexane-1-carboxylic acid]
7.05 | 115 | C=Cc1cnc([C@H]2C[C@@H](NC(=O)[C@@]3(C)COc4cc5c(cc43)OC(F)(F)O5)c3ccc(OC)cc3O2)cn1 [Example 190, (7R)—N-[(2R,4R)-2-(5-ethenylpyrazin-2-yl)-7-methoxy-3,4-dihydro-2H-1-benzopyran-4-yl]-2,2-difluoro-7-methyl-6,7-dihydro-2H-furo[2,3-f][1,3]benzodioxole-7-carboxamide]
5.97 | 106 | CC(C)(C)OC(=O)N[C@H]1CC[C@H]([C@@H]2C[C@H](NC(=O)[C@@]3(C)COc4cc5c(cc43)OC(F)(F)O5)c3ccc(OC(F)F)cc3O2)CC1 [Example 198, tert-butyl {trans-4-[(2S,4S)-7-(difluoromethoxy)-4-{[(7R)-2,2-difluoro-7-methyl-6,7-dihydro-2H-furo[2,3-f][1,3]benzodioxole-7-carbonyl]amino}-3,4-dihydro-2H-1-benzopyran-2-yl]cyclohexyl}carbamate]

Compound | pEC50 | Maximum % activity (%)
methyl 4-[(2R,4S,6S)-4-{[(7R)-2,2-difluoro-7-methyl-6,7-dihydro-2H-furo[2,3-f][1,3]benzodioxole-7-carbonyl]amino}-6-phenyloxan-2-yl]benzoate and methyl 4-[(2S,4R,6R)-4-{[(7R)-2,2-difluoro-7-methyl-6,7-dihydro-2H-furo[2,3-f][1,3]benzodioxole-7-carbonyl]amino}-6-phenyloxan-2-yl]benzoate [Example 33] | 5.93 | 131
